Test results: paper PMC5681660, “Reduced hepatitis B and D viral entry using clinically applied drugs as novel inhibitors of the bile acid transporter NTCP” (Scientific Reports, 2017)
Counter-ions that a name gives are not always drawn. Like-named read-outs stand apart in the source and are kept apart here.

What was measured:
[1] = molecular target: T1, human NTCP (Homo sapiens, UniProt Q14973); experiment: Screening fluorescent competitive Myrcludex B-FITC binding assay (96-well, 10 µM drug); details: 10 µM drug
T1 sequence (Q14973 1-349): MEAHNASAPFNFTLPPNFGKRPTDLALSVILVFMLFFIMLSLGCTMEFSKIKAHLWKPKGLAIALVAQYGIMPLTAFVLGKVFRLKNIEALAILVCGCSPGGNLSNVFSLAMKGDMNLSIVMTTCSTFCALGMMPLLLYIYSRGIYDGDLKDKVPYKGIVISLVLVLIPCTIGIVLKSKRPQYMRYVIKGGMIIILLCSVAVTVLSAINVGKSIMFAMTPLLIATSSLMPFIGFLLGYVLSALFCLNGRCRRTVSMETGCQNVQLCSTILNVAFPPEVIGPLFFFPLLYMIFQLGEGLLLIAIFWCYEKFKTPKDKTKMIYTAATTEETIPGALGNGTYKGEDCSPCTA

[2] = molecular target: T1, human NTCP; experiment: Screening taurocholate uptake assay (96-well, [14C]taurocholate, 10 µM drug)
[3] = Prestwick library screen, B-score of Myrcludex B-FITC binding
[4] = Prestwick library screen, 10 µM drug, B-score of taurocholate uptake
[5] = combined ranking from functional and binding assay B-scores
[6] = Prestwick library screen, Myrcludex B-FITC binding
[7] = Prestwick library screen, taurocholate uptake, 10 µM drug
[8] = ranking score beside the functional and binding assay B-scores of the screen
[9] = screen, Myrcludex B-FITC binding
[10] = combined ranking from functional and binding screening assays
[11] = screen, 10 µM drug, taurocholate uptake

SMILES | B-score binding assay [1, 3] | B-score functional assay [2, 4] | Ranking score [2, 5] | B-score binding assay [1, 6] | B-score functional assay [2, 7] | Ranking score [2, 8] | also measured
Cc1ccccc1N1C(=O)c2cc(S(N)(=O)=O)c(Cl)cc2NC1C (stereo not drawn) [Metolazone] | 1.32 | 0.67 | 1031.7 | – | – | – | –
CC(=O)Nc1c(I)c(C(=O)N[C@H]2C(O)O[C@H](CO)[C@@H](O)[C@@H]2O)c(I)c(N(C)C(C)=O)c1I (stereo partly drawn) [Metrizamide] | – | – | – | 0.138 | 0.395 | 816.081 | –
Cc1ncc([N+](=O)[O-])n1CCO [Metronidazole] | 0 | 1.996 | 878.042 | – | – | – | –
CC(C)(C(=O)c1cccnc1)c1cccnc1 [Metyrapone] | – | – | – | -0.063 | 0.78 | 759.235 | –
C[C@@]1(O)CCOC(=O)C1 [Mevalonic-D, L acid lactone] | 0.161 | 0.673 | 868.822 | – | – | – | –
CC[C@H](C)C(=O)O[C@H]1CCC=C2C=C[C@H](C)[C@H](CC[C@@H]3C[C@@H](O)CC(=O)O3)[C@H]21 [Mevastatin] | – | – | – | – | – | – | B-score binding assay [1, 9]: 1.164; Ranking score [2, 10]: 355.331; B-score functional assay [2, 11]: -2.175
CN1CCN2c3ccccc3Cc3ccccc3C2C1.Cl (stereo not drawn) [Mianserine hydrochloride] | – | – | – | 0.761 | 0.041 | 825.955 | –
COc1ccc(OC)c(C(O)CNC(=O)CN)c1 (stereo not drawn) [Midodrine hydrochloride] | – | – | – | 2.033 | -0.28 | 735.356 | –
CCN(CC)C(=O)C1(c2ccccc2)CC1CN.Cl (stereo not drawn) [Milnacipran hydrochloride] | 0.152 | 1.822 | 955.465 | – | – | – | –
Cc1[nH]c(=O)c(C#N)cc1-c1ccncc1 [Milrinone] | 0.945 | 0.094 | 877.639 | – | – | – | –
Cc1cc(-c2ccccc2)nnc1NCCN1CCOCC1 [Minaprine dihydrochloride] | – | – | – | -0.039 | 1.278 | 814.509 | –
CN(C)c1ccc(O)c2c1C[C@H]1C[C@H]3[C@H](N(C)C)C(O)=C(C(N)=O)C(=O)[C@@]3(O)C(O)=C1C2=O [Minocycline hydrochloride] | – | – | – | 0.626 | – | 838.821 | B-score functional assay [2]: 0.089
Clc1ccc(C(c2ccccc2Cl)C(Cl)Cl)cc1 (stereo not drawn) [Mitotane] | – | – | – | – | – | – | B-score binding assay [1, 9]: 2.009; Ranking score [2, 10]: 352.681; B-score functional assay [2, 11]: -2.371
O=C1c2c(O)ccc(O)c2C(=O)c2c(NCCNCCO)ccc(NCCNCCO)c21 [Mitoxantrone dihydrochloride] | – | – | – | -0.161 | 4.449 | 807.326 | –
CN(c1nccc(=O)[nH]1)C1CCN(c2nc3ccccc3n2Cc2ccc(F)cc2)CC1 [Mizolastine] | 0.089 | 0.906 | 877.518 | – | – | – | –
O=C(NCCN1CCOCC1)c1ccc(Cl)cc1 [Moclobemide] | – | – | – | -0.149 | 1.399 | 766.363 | –
CCc1c(C)[nH]c2c1C(=O)C(CN1CCOCC1)CC2 (stereo not drawn) [Molindone hydrochloride] | – | – | – | – | – | – | B-score binding assay [1, 9]: 0.009; Ranking score [2, 10]: 412.337; B-score functional assay [2, 11]: -0.958
Cc1ccsc1/C=C/C1=NCCCN1C [Morantel tartrate] | – | – | – | – | – | – | B-score binding assay [1, 9]: -0.484; Ranking score [2, 10]: 381; B-score functional assay [2, 11]: -0.483
Cl.N=C(N=C(N)N)N1CCOCC1 [Moroxidine hydrochloride] | 1.496 | 1.373 | 1132.99 | – | – | – | –
COc1c(N2C[C@@H]3CCCN[C@@H]3C2)c(F)cc2c(=O)c(C(=O)O)cn(C3CC3)c12 [Moxifloxacin] | – | – | – | – | – | – | B-score binding assay [1, 9]: -1.402; Ranking score [2, 10]: 388.165; B-score functional assay [2, 11]: 0.4
